In BindingDB's records for patent US20250066368 (Shanghai Apeiron Therapeutics Company, 2025):

Molecular target: T1, DNA polymerase theta [1792-2590] (UniProt O75417)
T1 construct: 1792-2590
T1 sequence (O75417 whole entry): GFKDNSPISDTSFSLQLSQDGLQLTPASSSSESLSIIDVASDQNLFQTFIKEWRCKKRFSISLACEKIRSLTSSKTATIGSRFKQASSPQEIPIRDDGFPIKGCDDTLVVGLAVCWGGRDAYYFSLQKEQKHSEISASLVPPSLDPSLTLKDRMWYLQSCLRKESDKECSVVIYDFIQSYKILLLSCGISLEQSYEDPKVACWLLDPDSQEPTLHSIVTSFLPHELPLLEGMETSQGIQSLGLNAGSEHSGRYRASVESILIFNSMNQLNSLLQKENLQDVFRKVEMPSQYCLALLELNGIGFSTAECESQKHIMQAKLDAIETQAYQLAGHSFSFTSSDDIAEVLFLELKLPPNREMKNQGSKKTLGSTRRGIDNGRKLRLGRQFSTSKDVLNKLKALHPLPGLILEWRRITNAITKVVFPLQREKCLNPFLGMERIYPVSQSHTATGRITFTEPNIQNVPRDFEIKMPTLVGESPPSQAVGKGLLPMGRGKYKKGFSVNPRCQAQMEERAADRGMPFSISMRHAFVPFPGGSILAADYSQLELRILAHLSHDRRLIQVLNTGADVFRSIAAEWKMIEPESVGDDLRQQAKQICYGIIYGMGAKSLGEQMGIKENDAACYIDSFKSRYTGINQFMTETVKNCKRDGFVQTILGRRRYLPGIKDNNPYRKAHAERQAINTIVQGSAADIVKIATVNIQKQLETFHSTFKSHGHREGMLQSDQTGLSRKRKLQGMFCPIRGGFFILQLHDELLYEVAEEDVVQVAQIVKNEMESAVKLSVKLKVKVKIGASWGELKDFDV
Assay: ADP-Glo Kinase Assay
Method: The ability of compounds to inhibit Pol 0 polymerase activity was determined by the PicoGreen method in vitro.The His-TEV-SUMO-tagged Polθ protein (amino acids 1792-2590) expressed in E. coli was purified and stored in aliquots at −80° C.The composition of the assay buffer is 25 mM Tris HCl pH 7.5, 12.5 mM NaCl, 0.5 mM MgCl2, 5% glycerol, 0.01% Triton X-100, 0.01% BSA, and 1 mM DTT.Test compounds were diluted in 100% DMSO and diluted three-fold into 10 concentration points in a dilution plate (Greiner-781280) using Bravo (Agilent) according to concentration requirements. The compounds diluted in DMSO were then diluted 20-fold in the assay buffer using Bravo. Further, 2 μl of diluted compounds were transferred to the assay plate (Corning-4512) using Bravo. The purified Pol 0 enzyme and primers ((primer strand: 5′-GCGGCTGTCATAAG-3′, SEQ ID NO: 1):(template strand: 5′-[…]-3′, SEQ ID NO: 2)=1:1.1) were prepared at a working concentration of 2.5× (1.5 nM Polθ and 50 nM PTD) in the assay buffer, transferred to the assay plate at 4 μl per well using an E1-CLIPTIP 12-channel pipette (Thermo, 1-30 l), and incubated at room temperature for 30 min. dNTP (Sigma-D7295) was diluted with the assay buffer to a working concentration of 2.5× (40 uM dNTP), transferred to the assay plate at 4 μl per well (final DMSO concentration of 1%) using an El-CLIPTIP 12-channel pipette (Thermo, 1-30 l), and incubated at room temperature for 60 min. A mixture containing 10 mM EDTA, 25 mM Tris pH 7.5, and a 1:200 diluted PicoGreen dye (Invitrogen-P7581) was added to the assay plate at 6 μl per well to stop the reaction. After 30 min of reaction at room temperature in the dark, fluorescence values were read on EnVision 2105 (PerkinElmer) using the Ex480 nm Em520 nm program, and the raw data was analyzed using XLfit to generate IC50 values.

Compound	IC50 [nM]
CN(C(=O)[C@@H]1[C@H](O)[C@H](O)C(=O)N1c1cc(C(F)(F)F)c2c(n1)CCC2)c1cc(Cl)c(F)cc1F [US20250066368, Compound 7]	< 50
[2H]C([2H])([2H])N(C(=O)C1[C@H](O)[C@H](O)C(=O)N1c1cc(C(F)(F)F)c2ccsc2n1)c1cc(Cl)c(F)cc1F (some centres not stated) [US20250066368, Compound 16]	< 50
[2H]C([2H])([2H])N(C(=O)[C@@H]1[C@H](O)[C@H](O)C(=O)N1c1cc(C(F)(F)F)c2c(n1)CC=C2)c1cc(Cl)c(F)cc1F [US20250066368, Compound 19]	< 50
CN(C(=O)[C@@H]1CNC(=O)N1c1cc(C(F)(F)F)c2c(n1)C=CC2)c1ccc(F)c(Cl)c1F [US20250066368, Compound 21]	< 50
[2H]C([2H])([2H])N(C(=O)[C@@H]1[C@H](O)[C@H](O)C(=O)N1c1cc(C(F)(F)F)c2ncsc2n1)c1cc(Cl)c(F)cc1F [US20250066368, Compound 26]	< 50
[2H]C([2H])([2H])N(C(=O)[C@@H]1[C@H](O)[C@H](O)C(=O)N1c1cc(C(F)(F)F)c2c(n1)C(=O)CC2)c1cc(Cl)c(F)cc1F [US20250066368, Compound 45]	< 50
[2H]C([2H])([2H])N(C(=O)[C@@H]1[C@H](O)[C@H](O)C(=O)N1c1cc(C(F)(F)F)c2cc[se]c2n1)c1cc(Cl)c(F)cc1F [US20250066368, Compound 46]	< 50
